Patent US20110250686A1 (CELLARTIS AB, priority 2006, published 2011)

System: hepatocyte-like cells
Conditions: against VitroHES reference protocol

C[C@@H]1C[C@H]2[C@@H]3CCC4=CC(=O)C=C[C@]4(C)[C@@]3(F)[C@@H](O)C[C@]2(C)[C@@]1(O)C(=O)CO [Dexamethasone]
morphology / appearance of hepatocyte-like cells: improved the appearance of the HCLC
